Data: patent publication US20120028888A1, “APJ RECEPTOR COMPOUNDS” (priority 2008, published 2012)
Blank lines part the entries; values can stand above or below the molecule they belong to. Residues, ends and D or L forms follow the SMILES beside them. *: point of attachment. Palmitoyl = CCCCCCCCCCCCCCCC(=O)*

Columns and labels:
mouse heart function = experiment: Langendorff heart preparation, developed pressure; type: ex vivo; conditions: isolated perfused mouse heart, 15 minutes
Method: A pressure-sensing balloon catheter was inserted in the LV cavity to record changes in the developed pressure. Heart function was assessed by measuring standard parameters such as heart rate, mean peak systolic pressure, mean end diastolic pressure, developed pressure, dP/dt max, and dP/dt min.

[1] = target: T1, Gi-coupled receptor APJ (HEK cells stably expressing the APJ receptor) (Homo sapiens, UniProt P35414); experiment: HTRF cAMP assay: inhibition of NKH477 stimulated increase in cAMP; type: cell-based; conditions: read-out: EC50 value (nM), SEM
T1 construct: expressed in transfected cells; host or cells: HEK cells stably expressing APJ
T1 sequence (P35414 1-380): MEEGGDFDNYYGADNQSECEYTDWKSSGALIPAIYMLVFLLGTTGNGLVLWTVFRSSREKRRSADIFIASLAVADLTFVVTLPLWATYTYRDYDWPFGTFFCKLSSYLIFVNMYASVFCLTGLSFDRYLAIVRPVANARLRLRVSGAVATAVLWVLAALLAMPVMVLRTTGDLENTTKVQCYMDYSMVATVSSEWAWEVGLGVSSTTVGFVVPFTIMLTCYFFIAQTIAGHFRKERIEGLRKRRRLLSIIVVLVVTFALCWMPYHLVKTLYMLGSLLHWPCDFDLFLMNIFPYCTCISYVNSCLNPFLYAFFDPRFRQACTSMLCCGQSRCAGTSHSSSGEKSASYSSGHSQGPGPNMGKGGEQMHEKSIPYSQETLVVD
Text: HTRF (homogeneous time resolved fluorescence) is a technology developed by Cisbio Bioassays based on TR-FRET (time-resolved fluorescence resonance energy transfer). Cisbio Bioassays has developed a wide selection of HTRF-based assays compatible with whole cells, thereby enabling functional assays to run under more physiological conditions. The IP-One assays are competitive immunoassays using cryptate-labeled anti-IPI monoclonal antibody and d2-labeled IP1. IP1 is a relatively stable downstream metabolite of IP3, and accumulates in cells following Gq receptor activation.
cAMP kits based on a competitive immunoassay using cryptate-labeled anti-cAMP antibody and d2-labeled cAMP were used to assay the effects of APJ compounds of the present invention. This assay measures the increase in intracellular cAMP upon Gs-coupled receptor activation as well as decrease in forskolin (or a more soluble version of forskolin—NKH477) stimulated increase in cAMP upon Gi-coupled receptor activation.

APJ receptor = APJ receptor (Homo sapiens (Human), UniProt P35414); experiment: cell-based or functional assay

Molecule: apelin-13 [reference compound]
effect on mouse heart function (developed pressure, inotropic effect) (mouse heart function): increase in developed pressure

Molecule: CCCCCCCCCCCCCCCC(=O)N[C@H](C(=O)N[C@H](C(=O)N[C@@H](Cc1ccccc1)C(=O)N[C@@H](CCCNC(=N)N)C(=O)N[C@@H](CO)C(=O)N[C@@H](CO)C(=O)N[C@@H](CCCNC(=N)N)C(=O)N[C@@H](CCC(=O)O)C(=O)N[C@@H](CCCCN)C(=O)N[C@@H](CCCNC(=N)N)C(=O)N[C@@H](CCCNC(=N)N)C(=O)N[C@@H](CO)C(=O)N[C@@H](C)C(=O)N[C@@H](CC(=O)O)C(=O)N[C@H](C(=O)N[C@@H](Cc1ccccc1)C(=O)N[C@H](C(N)=O)[C@@H](C)CC)[C@@H](C)CC)C(C)C)[C@@H](C)O [Compound 12] (Palmitoyl-TVFRSSREKRRSADIFI-NH2)
EC50 [1]: 1 to 500 nM
effect on mouse heart function (developed pressure, inotropic effect) (mouse heart function): demonstrates inotropic activity

Molecule: CCCCCCCCCCCCCCCC(=O)N[C@H](C(=O)N[C@H](C(=O)N[C@@H](Cc1ccccc1)C(=O)N[C@@H](Cc1c[nH]c2ccccc12)C(=O)N[C@@H](CO)C(=O)N[C@@H](CO)C(=O)N[C@@H](CCCNC(=N)N)C(=O)N[C@@H](CCC(=O)O)C(=O)N[C@@H](CCCCN)C(=O)N[C@@H](CCCNC(=N)N)C(=O)N[C@@H](CCCNC(=N)N)C(=O)N[C@@H](CO)C(=O)N[C@@H](C)C(=O)N[C@@H](CC(=O)O)C(=O)N[C@H](C(=O)N[C@@H](Cc1ccccc1)C(=O)N[C@H](C(N)=O)[C@@H](C)CC)[C@@H](C)CC)C(C)C)[C@@H](C)O [Compound 36] (Palmitoyl-TVFWSSREKRRSADIFI-NH2)
EC50 [1]: 1000 to 5000 nM

B1: Compound 12 Pal-TVFRSSREKRRSADIFI-Amide (peptide)
peptide: Palmitoyl-TVFRSSREKRRSADIFI-NH2
SMILES: CCCCCCCCCCCCCCCC(=O)N[C@H](C(=O)N[C@H](C(=O)N[C@@H](Cc1ccccc1)C(=O)N[C@@H](CCCNC(=N)N)C(=O)N[C@@H](CO)C(=O)N[C@@H](CO)C(=O)N[C@@H](CCCNC(=N)N)C(=O)N[C@@H](CCC(=O)O)C(=O)N[C@@H](CCCCN)C(=O)N[C@@H](CCCNC(=N)N)C(=O)N[C@@H](CCCNC(=N)N)C(=O)N[C@@H](CO)C(=O)N[C@@H](C)C(=O)N[C@@H](CC(=O)O)C(=O)N[C@H](C(=O)N[C@@H](Cc1ccccc1)C(=O)N[C@H](C(N)=O)[C@@H](C)CC)[C@@H](C)CC)C(C)C)[C@@H](C)O
EC50 value (nM), HTRF cAMP assay (APJ receptor): ≤ 500 nM

B2: Compound 11 Pal-FRSSREKRRSADIFI-Amide (peptide)
peptide: Palmitoyl-FRSSREKRRSADIFI-NH2
SMILES: CCCCCCCCCCCCCCCC(=O)N[C@@H](Cc1ccccc1)C(=O)N[C@@H](CCCNC(=N)N)C(=O)N[C@@H](CO)C(=O)N[C@@H](CO)C(=O)N[C@@H](CCCNC(=N)N)C(=O)N[C@@H](CCC(=O)O)C(=O)N[C@@H](CCCCN)C(=O)N[C@@H](CCCNC(=N)N)C(=O)N[C@@H](CCCNC(=N)N)C(=O)N[C@@H](CO)C(=O)N[C@@H](C)C(=O)N[C@@H](CC(=O)O)C(=O)N[C@H](C(=O)N[C@@H](Cc1ccccc1)C(=O)N[C@H](C(N)=O)[C@@H](C)CC)[C@@H](C)CC
EC50 value (nM), HTRF cAMP assay (APJ receptor): ≤ 500 nM

Results, then the molecule that gave them:

EC50 [1]: > 10000 nM
Molecule: CCCCCCCCCCCCCCCC(=O)N[C@H](C(=O)N[C@@H](CCCNC(=N)N)C(=O)N1CCC[C@H]1C(=O)N[C@H](C(=O)N[C@@H](C)C(=O)N[C@@H](CC(N)=O)C(=O)N[C@@H](C)C(=O)N[C@@H](CCCNC(=N)N)C(=O)N[C@@H](CC(C)C)C(=O)N[C@@H](CCCNC(=N)N)C(=O)N[C@@H](CC(C)C)C(=O)N[C@@H](CCCNC(=N)N)C(=O)N[C@H](C(=O)N[C@@H](CO)C(=O)NCC(N)=O)C(C)C)C(C)C)C(C)C [Compound 76] (Palmitoyl-VRPVANARLRLRVSG-NH2)

EC50 value (nM), HTRF cAMP assay (APJ receptor): ≤ 500 nM
B3: Compound 96 Pal-QTIAGHFRKERIEGLRKRRRLLA-Amide (peptide)
peptide: Palmitoyl-QTIAGHFRKERIEGLRKRRRLLA-NH2
SMILES: CCCCCCCCCCCCCCCC(=O)N[C@@H](CCC(N)=O)C(=O)N[C@H](C(=O)N[C@H](C(=O)N[C@@H](C)C(=O)NCC(=O)N[C@@H](Cc1c[nH]cn1)C(=O)N[C@@H](Cc1ccccc1)C(=O)N[C@@H](CCCNC(=N)N)C(=O)N[C@@H](CCCCN)C(=O)N[C@@H](CCC(=O)O)C(=O)N[C@@H](CCCNC(=N)N)C(=O)N[C@H](C(=O)N[C@@H](CCC(=O)O)C(=O)NCC(=O)N[C@@H](CC(C)C)C(=O)N[C@@H](CCCNC(=N)N)C(=O)N[C@@H](CCCCN)C(=O)N[C@@H](CCCNC(=N)N)C(=O)N[C@@H](CCCNC(=N)N)C(=O)N[C@@H](CCCNC(=N)N)C(=O)N[C@@H](CC(C)C)C(=O)N[C@@H](CC(C)C)C(=O)N[C@@H](C)C(N)=O)[C@@H](C)CC)[C@@H](C)CC)[C@@H](C)O
